Measured values taken from paper PMC8318231, “Rate-of-Kill (RoK) assays to triage large compound sets for Chagas disease drug discovery: Application to GSK Chagas Box” (PLoS Neglected Tropical Diseases, 2021).

Tested on: T. cruzi intracellular amastigotes in H9c2 cells
Assay: Rate-of-Kill (RoK) high-content imaging assay, amastigotes per cell (AM/CELL) and curve descriptors
Format: cell-based, Trypanosoma cruzi
Design: key to ME_24h / ME_48h / ME_72h: % reduction in parasite burden (cidal response); t50pct_MCC50 / t50pct_Cmax: unit not given here
Conditions: for ME_24h: 24h; for ME_48h: 48h; for ME_72h: 72h; for AM/CELL NORM: sheet figure 4 A; for t50%_Cmax / tlag_Cmax / t50pct_Cmax: at Cmax; for ME_24h (%): maximum effect at 24 h; for ME_24h (%) / ME_48h (%) / ME_72h (%): RoK assay; for ME_48h (%): maximum effect at 48 h; for ME_72h (%): maximum effect at 72 h
Description: For this high-content intracellular imaging assay, H9c2 cells were seeded in 225 cm^2 T- FLASK in DMEM with 10% FBS for 4 h to allow attachment. T. cruzi trypomastigotes, collected at days 5 to 8 after infection from LLC-MK2 parasite infected cultures, were allowed to swim out for 4 h at 37°C from a centrifuged pellet (1,600 x g / 10 min). Trypomastigotes were then collected and counted in a CASY Cell Counter using the 60 μm capillary. Trypomastigotes, in supplemented DMEM, were added to H9c2 cultures in a multiplicity of infection (MOI) of 8 and incubated for 18 h. Cells were washed once with PBS before incubation of the infected H9c2 monolayer with trypsin (Life-Technologies) to detach cells from the flask. Cells were counted in a CASY Cell Counter, using the 150 μm capillary, and their density set at 5 x 10^4 cells/mL in supplemented DMEM. Infected H9c2 were dispensed into 384-well plates at 50 μL per well using a Multidrop Combi dispenser. Control wells used to determine a 100% parasitic growth (full 6th column of each plate) were left untreated, whereas not infected cells were added in the control wells used as 0% parasite growth (or 100% parasite growth inhibition; full 18th column of each plate). The four plates corresponding to each RoK assay were predispensed for the same mother plate. […] Cultures were then fixed and stained with 50 μL per well of a PBS solution containing 4% formaldehyde and 2 μM DRAQ5 DNA dye (BioStatus, UK). Then plates were read in a PerkinElmer Opera Phenix using a 20x objective, 3 fields per well. DRAQ5 signal was detected using 640 nm excitation laser and a 690/50 nm emission detection filter. Automated image analysis was performed with a script developed on Acapella High Content Imaging and Analysis Software (PerkinElmer). Two outputs were provided for each sample well: (1) number of host cells nuclei to determine drug-related cytotoxicity (aka H9c2) and (2) number of amastigotes per cell as infection level measurement (aka AM/CELL). Each output is plotted as a time course for each compound at every concentration. This assay was adapted from Alonso-Padilla et al. and Peña et al..
To identify and classify the different compounds, the number of amastigotes per cell (AM/CELL) raw data obtained in rate of kill assay are normalised using the average of C1 (infected cells) at time 4 hours as 0% effect and the average of C2 (non-infected cells) for each time as 100% effect, according to the following Eq 1: %CIDALRESPONSE=100*[Avg_C14h-RawData]/[Avg_C14h-Avg_C2] (1)
• ME (Maximum Effect) is the maximum percentage of parasite burden reduction reached by any compound concentration. Compounds that decrease the initial parasite load will show a positive value of ME, whereas compounds that allow the progression of infection will render a negative ME value. […] It is calculated for the MCC50 (t50%_MCC50) and for the maximum concentration (t50%_Cmax). […] The value of this parameter is not either interpolated or extrapolated, and it refers to the first experimental time-course point at which a 50% of effect is reached or exceeded. • tlag defines the time elapsed for one particular concentration to reduce parasite burden between two consecutive points at any moment of the time course. It is calculated for the MCC50 (tlag_MCC50) and for the maximum concentration (tlag_Cmax). The value of this parameter is not either interpolated or extrapolated, and it refers to the first experimental time-course point of a positive slope in the normalised plot (i.e. %Cidal_Response). • Cmin_Tox (Minimal CytoToxic Concentration) is the lowest compound concentration that is reducing the number of host mammalian cells below 50% of initial cell density. Cytotoxic compounds may mislead a bona fide antiparasitic action.

[1] = maximum percentage of parasite burden reduction reached by any concentration, 24 hours

Structure (SMILES) | ME_24h (figure 5) | ME_48h (figure 5) | ME_72h (figure 5) | MCC50 (RoK curve descriptor) [µM] | MCCE (RoK curve descriptor) [µM] | AM/CELL NORM (Time 4) | AM/CELL NORM (Time 24) | AM/CELL NORM (Time 48) | AM/CELL NORM (Time 72) | tlag_Cmax [h] | t50pct_Cmax (figure 5) | tlag_Cmax (figure 5) | t50pct_MCC50 (at MCC50, figure 5) | tlag_MCC50 (at MCC50, figure 5) | MCCE (figure 5) | ME_24h (%) | ME_48h (%) | ME_72h (%) | MCC50 (figure 5) [µM] | ME 24h (maximum effect at 24 hours, intracellular amastigotes) [1] [%] | further results
O=c1[nH]cnc2c([C@@H]3O[C@H](CO)[C@@H](O)[C@H]3O)n[nH]c12 [TCMDC-143083, Formycin B] | 45.1391 | 64.8809 | 83.4402 | 3.7 | 0.6 | 22.2526 | 28.621 | 68.9466 | 69.7149 | 4.0 | 48 | 4 | 60 | 4 | 0.6173 | 45.1 | 64.9 | 83.4 |  |  | ME (maximum effect) in RoK assay (in words): ME positive for all times; cidality in the RoK assay (in words): cidal; Emax (Trypanosoma cruzi, H9c2, maximum percentage of parasite burden reduction reached by any concentration, 24 hours, read-out: ME 24h (maximum effect at 24 hours, intracellular amastigotes)): 48.3%; t50%_Cmax: 48.0 h; t50%_MCC50 (at MCC50): 60.0 h; tlag_MCC50 (at MCC50): 4.0 h; MCC50 (figure 5, in µM): 3.7037
O=C(c1cccc(Cl)c1Cl)N1CCn2c1nc(-c1ccncc1)cc2=O [TCMDC-143409] | -46.4941 | -253.426 | 11.7221 |  | 0.6 | 24.5196 | -46.4941 | -266.503 | -474.938 | 72.0 | 72 | 72 | 72 | 72 | 0.6173 | -46.5 | -253.4 | 11.7 | 50 | -46.4941 | 
O=C(Nc1ccc(Br)c(Cl)c1)Nc1ccc2c(c1)OCO2 [TCMDC-143588] | 4.143 | 11.8076 | -0.7061 |  | 5.6 | 16.6619 | 4.143 | 11.8076 | -47.3133 | 24.0 | 72 | 24 | 72 | 72 | 5.556 | 4.1 | 11.8 | -0.7 | 50 | 4.143 | 
Cc1[nH]c2ccccc2c(=O)c1Cc1c(C)[nH]c2ccccc2c1=O [TCMDC-143490] | 37.5404 | 50.8304 | 51.8782 | 50.0 | 0.01 | 13.7757 | 37.5404 | 50.8304 | 51.8782 | 4.0 | 48 | 4 | 48 | 4 | 0.007621 | 37.5 | 50.8 | 51.9 | 50 | 37.5404 | t50%_Cmax: 48.0 h; t50%_MCC50 (at MCC50): 48.0 h; tlag_MCC50 (at MCC50): 4.0 h
CCCCn1nnnc1CSc1nc(C)cc(C)c1C#N [TCMDC-143315] | 53.1743 | 83.3988 | 72.5932 | 0.6 | 0.2 | 13.5421 | 53.1743 | 83.3988 | 54.3555 | 4.0 | 24 | 4 | 48 | 4 | 0.2058 | 53.2 | 83.4 | 72.6 |  | 53.1743 | t50%_Cmax: 24.0 h; t50%_MCC50 (at MCC50): 48.0 h; tlag_MCC50 (at MCC50): 4.0 h; MCC50 (figure 5, in µM): 0.6173
CNc1c(C(N)=O)c(-c2ccc3scnc3c2)nn1CC(F)(F)F.O=C(O)C(F)(F)F [TCMDC-143463] | -5.4236 | -24.264 | 4.63 |  | 0.2 | 20.0861 | -5.743 | -19.2942 | 13.2045 | 48.0 | 72 | 48 | 72 | 72 | 0.2058 | -5.4 | -24.3 | 4.6 | 50 | -5.104 | 
CCN(Cc1ccncc1)Cc1ccc(NC(=O)c2cc(-c3ccc(F)cc3)n[nH]2)cc1 [TCMDC-143433] | -248.551 | -140.579 | 30.4902 |  | 0.2 | 7.09 | -279.989 | -140.579 | 25.9601 | 24.0 | 72 | 24 | 72 | 72 | 0.2058 | -248.6 | -140.6 | 30.5 | 50 | -248.551 | 
c1ccc(CCNCc2cncc3nc(-c4cnccn4)n(C4CCCCC4)c23)cc1 [TCMDC-143346] | -174.15 | -60.952 | 17.2662 |  | 0.2 | -7.276 | -174.15 | -60.952 | 6.4629 | 24.0 | 72 | 24 | 72 | 72 | 0.2058 | -174.2 | -61.0 | 17.3 | 50 | -174.15 | 
CN1CCCN(C(=O)c2ccc(N3CCCC3)cc2Cl)CC1 [TCMDC-143127] | -63.1294 | 41.4777 | 77.6777 | 7.0 | 1.9 | 3.238 | -70.995 | 17.9659 | 59.5367 | 24.0 | 67.2 | 24 | 72 | 24 | 1.852 | -63.1 | 41.5 | 77.7 |  | -38.4049 | t50%_Cmax: 67.2 h; t50%_MCC50 (at MCC50): 72.0 h; tlag_MCC50 (at MCC50): 24.0 h; MCC50 (figure 5, in µM): 7.037
